Here are results for 16 molecules from US10828315B2 (Madrigal Pharmaceuticals, Inc., priority 2013, dated 2020).

Usually IC50 stands for the point on the concentration scale where inhibition reaches its midpoint. Lower therefore signals higher potency.

The assay has as its system HER2. The experiment in a line: HER2 degradation assay with BT-474 cell line (Example 12, FACS). In kind it is cell-based, human. The text has this: HER2 has emerged as a key target for anticancer drugs due to its intrinsic involvement in the phosphatidylinositol-3-kinase-Akt/protein kinase B (PI3K-Akt) and the mitogen-activated protein kinase (MAPK) pathways, both of which suppress apoptosis and promote tumor cell survival, gene transcription, angiogenesis, cellular proliferation, migration, mitosis, and differentiation. The degradation of HER2 is a measure of efficacy of anticancer therapeutics that target Hsp90. Accordingly, the SDC-TRAP molecules of the invention that comprise a binding moiety that binds Hsp90 were tested in the following HER2 degradation assay.
BT-474 cells (human breast cancer cell line ATCC HTB-20) were obtained from ATCC and seeded into 12-well tissue culture plates at 0.2×10^6/1.8 mL/well. […] Each test compound was titrated in 4-fold dilutions from 5 μM to 78 nM with DMSO and 200 μL of the titration was added to each well of the cell plate. The DMSO final concentration was 0.2%. Cells were incubated overnight at 37° C. in 5% CO2.
Media was decanted from the plate, cells were washed 1× in PBS. 400 μL trypsin (EDTA) per well was added, and the cells were incubated for 2 to 3 minutes. Cells were collected into FACS tubes containing 1 ml culture medium to neutralize the trypsin and were centrifuged for 5 minutes at 1200 rpm. Supernatant was decanted and the cells were resuspended in 5 μL FITC (anti HER2/nu)/200 μL staining buffer (1×PBS+1% FBS+0.05% Sodium Azide)/tube. Controls were 5 μL IgG isotype control and staining buffer only. Tubes were incubated for 30 minutes in the dark at room temperature. 1 mL staining buffer was added to each tube and the tubes were centrifuged for 6 minutes at 1200 rpm. The supernatant was decanted and 300 μL staining buffer was added to each tube, which was store at 4° C. fpr FACS (cytometer) analysis. The cytometer readout was normalized and the potency of each compound is evaluated with IC50 calculated with XLfit™ software.
For `CCc1c2c(nc3ccc(OC(=O)N(C)CCCN4CCN(Cc5ccc(-n6c(O)nnc6-c6cc(C(C)C)c(O)cc6O)cc5)CC4)cc13)-c1cc3c(c(=O)n1C2)COC(=O)[C@]3(O)CC` [SDC-TRAP-0065, (S)-4,11-diethyl-4-hydroxy-3,14-dioxo-3,4,12,14-tetrahydro-1H-pyrano[3′,4′:6,7]indolizino[1,2-b]quinolin-9-yl (3-(4-(4-(3-(2,4-dihydroxy-5-isopropylphenyl)-5-hydroxy-4H-1,2,4-triazol-4-yl)benzyl)piperazin-1-yl)propyl)(methyl)carbamate], the half-maximal inhibitory concentration (IC50) is 661 nM. For `CCc1c2c(nc3ccc(OC(=O)N4CCC(CN5CCC(Cc6ccc(-n7c(O)nnc7-c7cc(C(C)C)c(O)cc7O)cc6)CC5)CC4)cc13)-c1cc3c(c(=O)n1C2)COC(=O)C3(O)CC` (stereo not shown) [SDC-TRAP-0067, 4,11-diethyl-4-hydroxy-3,14-dioxo-3,4,12,14-tetrahydro-1H-pyrano[3′,4′:6,7]indolizino[1,2-b]quinolin-9-yl 4-((4-(4-(3-(2,4-dihydroxy-5-isopropylphenyl)-5-hydroxy-4H-1,2,4-triazol-4-yl)benzyl)piperidin-1-yl)methyl)piperidine-1-carboxylate], the IC50 was 196 nM.

Molecule `CCc1c2c(nc3ccc(OC(=O)N4CCC(CCN5CCN(c6ccc(-n7c(O)nnc7-c7cc(C(C)C)c(O)cc7O)cc6)CC5)CC4)cc13)-c1cc3c(c(=O)n1C2)COC(=O)C3(O)CC` (stereo not shown) [SDC-TRAP-0070, 4,11-diethyl-4-hydroxy-3,14-dioxo-3,4,12,14-tetrahydro-1H-pyrano[3′,4′:6,7]indolizino[1,2-b]quinolin-9-yl 4-(2-(4-(4-(3-(2,4-dihydroxy-5-isopropylphenyl)-5-hydroxy-4H-1,2,4-triazol-4-yl)phenyl)piperazin-1-yl)ethyl)piperidine-1-carboxylate] came in with an IC50 of 263 nM. Under `CCc1c2c(nc3ccc(OC(=O)N4CCN(C(=O)c5cc6cc(-n7c(O)nnc7-c7cc(C(C)C)c(O)cc7O)ccc6n5C)CC4)cc13)-c1cc3c(c(=O)n1C2)COC(=O)C3(O)CC` (stereo not shown) [SDC-TRAP-0072, 4,11-diethyl-4-hydroxy-3,14-dioxo-3,4,12,14-tetrahydro-1H-pyrano[3′,4′:6,7]indolizino[1,2-b]quinolin-9-yl 4-(5-(3-(2,4-dihydroxy-5-isopropylphenyl)-5-hydroxy-4H-1,2,4-triazol-4-yl)-1-methyl-1H-indole-2-carbonyl)piperazine-1-carboxylate] stands more than 5000 nM. Molecule `CCc1c2c(nc3ccc(OC(=O)N4CCN(Cc5cc6cc(-n7c(O)nnc7-c7cc(C(C)C)c(O)cc7O)ccc6n5C)CC4)cc13)-c1cc3c(c(=O)n1C2)COC(=O)C3(O)CC` (stereo not shown) [SDC-TRAP-0073, 4,11-diethyl-4-hydroxy-3,14-dioxo-3,4,12,14-tetrahydro-1H-pyrano[3′,4′:6,7]indolizino[1,2-b]quinolin-9-yl 4-((5-(3-(2,4-dihydroxy-5-isopropylphenyl)-5-hydroxy-4H-1,2,4-triazol-4-yl)-1-methyl-1H-indol-2-yl)methyl)piperazine-1-carboxylate] displayed a half-inhibitory concentration (IC50) of 478 nM. Under `CCc1c2c(nc3ccc(OC(C)=O)cc13)-c1cc3c(c(=O)n1C2)COC(=O)C3(CC)OC(=O)N1CCN(Cc2ccc(-n3c(O)nnc3-c3cc(C(C)C)c(O)cc3O)cc2)CC1` (stereo not shown) [SDC-TRAP-0074, 9-acetoxy-4,11-diethyl-3,14-dioxo-3,4,12,14-tetrahydro-1H-pyrano[3′,4′:6,7]indolizino[1,2-b]quinolin-4-yl 4-(4-(3-(2,4-dihydroxy-5-isopropylphenyl)-5-hydroxy-4H-1,2,4-triazol-4-yl)benzyl) piperazine-1-carboxylate] stands 4120 nM; under `CCc1c2c(nc3ccc(O)cc13)-c1cc3c(c(=O)n1C2)COC(=O)C3(CC)OC(=O)N1CCN(Cc2cc3cc(-n4c(O)nnc4-c4cc(C(C)C)c(O)cc4O)ccc3n2C)CC1` (stereo not shown) [SDC-TRAP-0075, 4,11-diethyl-9-hydroxy-3,14-dioxo-3,4,12,14-tetrahydro-1H-pyrano[3′,4′:6,7]indolizino[1,2-b]quinolin-4-yl 4-((5-(3-(2,4-dihydroxy-5-isopropylphenyl)-5-hydroxy-4H-1,2,4-triazol-4-yl)-1-methyl-1H-indol-2-yl)methyl)piperazine-1-carboxylate], 953 nM.

As to `CCc1c2c(nc3ccc(O)cc13)-c1cc3c(c(=O)n1C2)COC(=O)C3(CC)OC(=O)N1CCN(Cc2ccc(-n3c(O)nnc3-c3cc(C(C)C)c(O)cc3O)cc2F)CC1` (stereo not shown) [SDC-TRAP-0079, 4,11-diethyl-9-hydroxy-3,14-dioxo-3,4,12,14-tetrahydro-1H-pyrano[3′,4′:6,7]indolizino[1,2-b]quinolin-4-yl 4-(4-(3-(2,4-dihydroxy-5-isopropylphenyl)-5-hydroxy-4H-1,2,4-triazol-4-yl)-2-fluorobenzyl)piperazine-1-carboxylate], the IC50 is 1430 nM.

For `CCc1c2c(nc3ccc(O)cc13)-c1cc3c(c(=O)n1C2)COC(=O)C3(CC)OC(=O)N1CCN(c2ccc(-n3c(O)nnc3-c3cc(C(C)C)c(O)cc3O)cc2)CC1` (stereo not shown) [SDC-TRAP-0081, 4,11-diethyl-9-hydroxy-3,14-dioxo-3,4,12,14-tetrahydro-1H-pyrano[3′,4′:6,7]indolizino[1,2-b]quinolin-4-yl-4-(4-(3-(2,4-dihydroxy-5-isopropylphenyl)-5-hydroxy-4H-1,2,4-triazol-4-yl)phenyl)piperazine-1-carboxylate], the IC50 is 622 nM. `CCc1c2c(nc3ccc(OC(=O)N4Cc5ccc(-n6c(O)nnc6-c6cc(C(C)C)c(O)cc6O)cc5C4)cc13)-c1cc3c(c(=O)n1C2)COC(=O)C3(O)CC` (stereo not shown) [SDC-TRAP-0083, 4,11-diethyl-4-hydroxy-3,14-dioxo-3,4,12,14-tetrahydro-1H-pyrano[3′,4′:6,7]indolizino[1,2-b]quinolin-9-yl 5-(3-(2,4-dihydroxy-5-isopropylphenyl)-5-hydroxy-4H-1,2,4-triazol-4-yl)isoindoline-2-carboxylate] gave a half-maximal inhibitory concentration (IC50) of 1440 nM. Turning to `CCc1c2c(nc3ccc(O)cc13)-c1cc3c(c(=O)n1C2)COC(=O)[C@@]3(CC)OC(=O)N(C)CCCN1CCN(Cc2ccc(-n3c(O)nnc3-c3cc(C(C)C)c(O)cc3O)cc2)CC1` [SDC-TRAP-0084, (S)-4,11-diethyl-9-hydroxy-3,14-dioxo-3,4,12,14-tetrahydro-1H-pyrano[3′,4′:6,7]indolizino[1,2-b]quinolin-4-yl (3-(4-(4-(3-(2,4-dihydroxy-5-isopropylphenyl)-5-hydroxy-4H-1,2,4-triazol-4-yl)benzyl)piperazin-1-yl)propyl)(methyl)carbamate], the IC50 worked out at 1130 nM. With `COc1ccc(/C=C\c2cc(OC)c(OC)c(OC)c2)cc1OC(=O)N1CCN(Cc2ccc(-n3c(O)nnc3-c3cc(C(C)C)c(O)cc3O)cc2)CC1` [SDC-TRAP-0085, (Z)-2-methoxy-5-(3,4,5-trimethoxystyryl)phenyl 4-(4-(3-(2,4-dihydroxy-5-isopropylphenyl)-5-hydroxy-4H-1,2,4-triazol-4-yl)benzyl) piperazine-1-carboxylate] the figure was 889 nM; with `CCc1c2c(nc3ccc(OC(=O)N4CCC(CCc5ccc(-n6c(O)nnc6-c6cc(C(C)C)c(O)cc6O)cc5)CC4)cc13)-c1cc3c(c(=O)n1C2)COC(=O)[C@]3(O)CC` [SDC-TRAP-0086, (S)-4,11-diethyl-4-hydroxy-3,14-dioxo-3,4,12,14-tetrahydro-1H-pyrano[3′,4′:6,7]indolizino[1,2-b]quinolin-9-yl 4-(4-(3-(2,4-dihydroxy-5-isopropylphenyl)-5-hydroxy-4H-1,2,4-triazol-4-yl)phenethyl)piperidine-1-carboxylate], more than 5000 nM; with `CCc1c2c(nc3ccc(O)cc13)-c1cc3c(c(=O)n1C2)COC(=O)[C@@]3(CC)OC(=O)N(C)CCN1CCN(Cc2ccc(-n3c(O)nnc3-c3cc(C(C)C)c(O)cc3O)cc2)CC1` [SDC-TRAP-0087, (S)-4,11-diethyl-9-hydroxy-3,14-dioxo-3,4,12,14-tetrahydro-1H-pyrano[3′,4′:6,7]indolizino[1,2-b]quinolin-4-yl (2-(4-(4-(3-(2,4-dihydroxy-5-isopropylphenyl)-5-hydroxy-4H-1,2,4-triazol-4-yl)benzyl)piperazin-1-yl)ethyl)(methyl)carbamate], 535 nM. As to `CCc1c2c(nc3ccc(OC(=O)N4CCC(CN5CCN(Cc6ccc(-n7c(O)nnc7-c7cc(C(C)C)c(O)cc7O)cc6)CC5)CC4)cc13)-c1cc3c(c(=O)n1C2)COC(=O)[C@]3(O)CC` [SDC-TRAP-0088], the IC50 is 221 nM. Under `CCc1c2c(nc3ccc(OC(=O)N4CCC(N5Cc6ccc(-n7c(O)nnc7-c7cc(C(C)C)c(O)cc7O)cc6C5)CC4)cc13)-c1cc3c(c(=O)n1C2)COC(=O)[C@]3(O)CC` [SDC-TRAP-0089, (S)-4,11-diethyl-4-hydroxy-3,14-dioxo-3,4,12,14-tetrahydro-1H-pyrano[3′,4′:6,7]indolizino[1,2-b]quinolin-9-yl 4-(5-(3-(2,4-dihydroxy-5-isopropylphenyl)-5-hydroxy-4H-1,2,4-triazol-4-yl)isoindolin-2-yl)piperidine-1-carboxylate] stands 1470 nM.
